Here are results for two compounds from US10167306B2, “Crystalline form of 1-(beta-D-glucopyranosyl)-4-methyl-3-[5-(4-fluorophenyl)-2-thienylmethyl]benzene and preparation method thereof” (SHANGHAI DESANO PHARMACEUTICALS INVESTMENT CO., LTD, priority 2015, dated 2019).

Series [1] in a line: Suspension of crystalline form W in water, XRPD comparison. Format: physicochemical. As to conditions: suspended in water of 20° C. and 60° C. for 4 days; form W prepared in Example 1; FIG. 5. How it is done:
(§1) X-ray powder diffraction instrument: Brucker D8 advance X-ray powder diffraction; radiation source: copper target (α=1.540600 Å), scanning at room temperature; voltage: 40 kv; Current: 40 mA; starting 2θ: 2.000°, scanning range: 2.0000-50.000°; step size: 0.020°; measuring time: 12.6 seconds/step.
Crystalline forms W of canagliflozin prepared in Examples 1-7 were suspended in water of 20° C. and 60° C. for 4 days.

Series [2] is described as follows: Crystalline form competition experiment: 1:1 mixture of form W and hemihydrate form suspended in water, XRPD comparison. The series is classed as physicochemical. How it is done:
as §1
Crystalline forms W of canagliflozin prepared in Examples 1-7 were mixed with the hemihydrate crystalline of canagliflozin (the product after crystallization) prepared in Example 1 in WO2008069327 in a ratio of 1:1, and the mixtures were suspended in water of 20° C. and 60° C. for 4 days, respectively.

For `Cc1ccc([C@@H]2O[C@H](CO)[C@@H](O)[C@H](O)[C@H]2O)cc1Cc1ccc(-c2ccc(F)cc2)s1` [crystalline form W, 1-(β-D-glucopyranosyl)-4-methyl-3-[5-(4-fluorophenyl)-2-thienylmethyl]benzene], in series [1], the “stability of crystalline form (XRPD pattern) after suspending in water” value is given as “excellent stability”. Also, the “relative stability in the crystalline form competition experiments” value in series [2] (versus hemihydrate crystalline form, 1:1 mixture in water of 20° C. and 60° C. for 4 days) was “better stability”.
Turning to `Cc1ccc([C@@H]2O[C@H](CO)[C@@H](O)[C@H](O)[C@H]2O)cc1Cc1ccc(-c2ccc(F)cc2)s1` [hemihydrate crystalline form, 1-(β-D-glucopyranosyl)-4-methyl-3-[5-(4-fluorophenyl)-2-thienylmethyl]benzene, reference compound], the “crystalline form transformation in the 1:1 mixture (XRPD pattern)” value in series [2] (1:1 mixture of form W (Example 1) and hemihydrate form of WO2008069327, suspended in water of 20° C. and 60° C. for 4 days, FIG. 6) was “completely transformed into crystalline form W”.
